Patent publication US10266537B2, “3-acetylenyl-pyrazole-pyrimidine derivative, and preparation method therefor and uses thereof” (Si Chuan University, priority 2015, dated 2019)
Blank lines part the entries; values can stand above or below the molecule they belong to.

Key:
[1] = test system: MDA-MB-453; assay: cells; conditions: Homo sapiens, MDA-MB-453, 72 h, read-out: Proliferation inhibitory activity IC50
[2] = test system: H4; assay: Cell proliferation inhibition assay (MTT); assay type: cell-based; conditions: Homo sapiens, 72 hours, read-out: Proliferation inhibitory activity IC50
[3] = test system: U87; assay: Cell proliferation inhibition assay (MTT); assay type: cell-based; conditions: Homo sapiens, U-87 MG, 72 hours, read-out: Proliferation inhibitory activity IC50
[4] = biological target: CSK (Homo sapiens (Human), UniProt P41240); assay: Kinase inhibition assay (KinaseProfiler, 33P-ATP); assay type: biochemical
[5] = biological target: ErbB4 (Homo sapiens (Human), UniProt Q15303); assay: Kinase inhibition assay (KinaseProfiler, 33P-ATP); assay type: biochemical; conditions: ErbB4(h), read-out: The percentage of the remaining active protein
[6] = biological target: Fgr (Homo sapiens (Human), UniProt P09769); assay: Kinase inhibition assay (KinaseProfiler, 33P-ATP); assay type: biochemical; conditions: Fgr(h), read-out: The percentage of the remaining active protein
[7] = test system: MDA-MB-415; assay: Cell proliferation inhibition assay (MTT); assay type: cell-based; conditions: Homo sapiens, 72 hours, read-out: Proliferation inhibitory activity IC50
[8] = biological target: Abl (H396P)(h) (Homo sapiens (Human), UniProt P00519, H396P); assay: Kinase inhibition assay (KinaseProfiler, 33P-ATP); assay type: biochemical; conditions: read-out: The percentage of the remaining active protein
[9] = biological target: A-Raf(h) (Homo sapiens (Human), UniProt P10398); assay: Kinase inhibition assay (KinaseProfiler, 33P-ATP); assay type: biochemical; conditions: read-out: The percentage of the remaining active protein
[10] = biological target: BTK(R28H)(h) (Homo sapiens (Human), UniProt Q06187, R28H); assay: Kinase inhibition assay (KinaseProfiler, 33P-ATP); assay type: biochemical; conditions: read-out: The percentage of the remaining active protein
[11] = biological target: CaMKIδ(h) (Homo sapiens (Human), UniProt Q8IU85); assay: Kinase inhibition assay (KinaseProfiler, 33P-ATP); assay type: biochemical; conditions: read-out: The percentage of the remaining active protein
CaMKIδ(h), sequence (Q8IU85 whole entry): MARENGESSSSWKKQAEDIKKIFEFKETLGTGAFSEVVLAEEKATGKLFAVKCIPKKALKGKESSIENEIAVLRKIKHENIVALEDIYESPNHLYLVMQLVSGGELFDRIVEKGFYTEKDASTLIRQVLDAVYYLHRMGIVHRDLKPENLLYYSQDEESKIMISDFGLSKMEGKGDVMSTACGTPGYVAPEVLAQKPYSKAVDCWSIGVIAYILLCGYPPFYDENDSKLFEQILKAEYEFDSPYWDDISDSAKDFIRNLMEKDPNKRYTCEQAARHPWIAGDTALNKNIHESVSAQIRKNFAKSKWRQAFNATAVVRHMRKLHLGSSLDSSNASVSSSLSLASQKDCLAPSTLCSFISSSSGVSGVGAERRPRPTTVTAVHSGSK

[12] = biological target: CK1γ3(h) (Homo sapiens (Human), UniProt Q9Y6M4); assay: Kinase inhibition assay (KinaseProfiler, 33P-ATP); assay type: biochemical; conditions: read-out: The percentage of the remaining active protein
[13] = test system: CK1(y); assay: Kinase inhibition assay (KinaseProfiler, 33P-ATP); assay type: biochemical, yeast; conditions: 10 μM
[14] = biological target: cKit(D816V)(h) (Homo sapiens (Human), UniProt P10721, D816V); assay: Kinase inhibition assay (KinaseProfiler, 33P-ATP); assay type: biochemical; conditions: read-out: The percentage of the remaining active protein
[15] = biological target: GRK5(h) (Homo sapiens (Human), UniProt P34947); assay: Kinase inhibition assay (KinaseProfiler, 33P-ATP); assay type: biochemical; conditions: read-out: The percentage of the remaining active protein
GRK5(h), sequence (P34947 whole entry): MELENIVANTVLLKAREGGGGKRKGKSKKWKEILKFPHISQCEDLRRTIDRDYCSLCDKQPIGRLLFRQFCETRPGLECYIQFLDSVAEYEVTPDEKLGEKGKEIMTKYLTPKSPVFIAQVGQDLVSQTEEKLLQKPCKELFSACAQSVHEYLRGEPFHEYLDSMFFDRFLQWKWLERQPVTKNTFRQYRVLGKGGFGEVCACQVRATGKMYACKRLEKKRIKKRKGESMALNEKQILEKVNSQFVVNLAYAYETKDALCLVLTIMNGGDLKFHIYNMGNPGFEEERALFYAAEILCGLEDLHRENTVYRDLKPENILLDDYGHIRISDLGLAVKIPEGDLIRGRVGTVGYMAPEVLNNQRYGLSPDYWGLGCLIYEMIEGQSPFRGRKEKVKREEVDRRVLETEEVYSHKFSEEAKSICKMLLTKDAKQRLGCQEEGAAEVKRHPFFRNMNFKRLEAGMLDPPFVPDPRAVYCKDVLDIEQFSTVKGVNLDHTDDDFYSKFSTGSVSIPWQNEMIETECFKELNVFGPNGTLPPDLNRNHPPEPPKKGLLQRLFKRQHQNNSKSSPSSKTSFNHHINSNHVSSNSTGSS

[16] = biological target: Hck(h) activated (Homo sapiens (Human), UniProt P08631); assay: Kinase inhibition assay (KinaseProfiler, 33P-ATP); assay type: biochemical; conditions: read-out: The percentage of the remaining active protein
Hck(h) activated, sequence (P08631 whole entry): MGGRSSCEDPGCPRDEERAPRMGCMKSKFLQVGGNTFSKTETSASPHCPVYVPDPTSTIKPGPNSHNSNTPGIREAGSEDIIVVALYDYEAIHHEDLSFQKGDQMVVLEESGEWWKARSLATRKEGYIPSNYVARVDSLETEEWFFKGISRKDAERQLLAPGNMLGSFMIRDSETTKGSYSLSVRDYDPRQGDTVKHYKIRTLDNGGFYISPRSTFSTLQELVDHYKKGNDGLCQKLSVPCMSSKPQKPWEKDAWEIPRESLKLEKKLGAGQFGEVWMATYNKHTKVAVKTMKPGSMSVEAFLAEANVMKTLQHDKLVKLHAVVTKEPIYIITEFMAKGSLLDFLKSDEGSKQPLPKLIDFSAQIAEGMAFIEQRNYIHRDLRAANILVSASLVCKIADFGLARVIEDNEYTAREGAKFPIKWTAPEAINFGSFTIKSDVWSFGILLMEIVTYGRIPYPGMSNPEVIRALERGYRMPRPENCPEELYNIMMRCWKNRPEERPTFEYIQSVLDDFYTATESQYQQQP

[17] = biological target: IR(h) (Homo sapiens (Human), UniProt P06213); assay: Kinase inhibition assay (KinaseProfiler, 33P-ATP); assay type: biochemical; conditions: read-out: The percentage of the remaining active protein
[18] = biological target: IRR(h) (Homo sapiens (Human), UniProt P14616); assay: Kinase inhibition assay (KinaseProfiler, 33P-ATP); assay type: biochemical; conditions: read-out: The percentage of the remaining active protein
IRR(h), sequence (P14616 27-1297): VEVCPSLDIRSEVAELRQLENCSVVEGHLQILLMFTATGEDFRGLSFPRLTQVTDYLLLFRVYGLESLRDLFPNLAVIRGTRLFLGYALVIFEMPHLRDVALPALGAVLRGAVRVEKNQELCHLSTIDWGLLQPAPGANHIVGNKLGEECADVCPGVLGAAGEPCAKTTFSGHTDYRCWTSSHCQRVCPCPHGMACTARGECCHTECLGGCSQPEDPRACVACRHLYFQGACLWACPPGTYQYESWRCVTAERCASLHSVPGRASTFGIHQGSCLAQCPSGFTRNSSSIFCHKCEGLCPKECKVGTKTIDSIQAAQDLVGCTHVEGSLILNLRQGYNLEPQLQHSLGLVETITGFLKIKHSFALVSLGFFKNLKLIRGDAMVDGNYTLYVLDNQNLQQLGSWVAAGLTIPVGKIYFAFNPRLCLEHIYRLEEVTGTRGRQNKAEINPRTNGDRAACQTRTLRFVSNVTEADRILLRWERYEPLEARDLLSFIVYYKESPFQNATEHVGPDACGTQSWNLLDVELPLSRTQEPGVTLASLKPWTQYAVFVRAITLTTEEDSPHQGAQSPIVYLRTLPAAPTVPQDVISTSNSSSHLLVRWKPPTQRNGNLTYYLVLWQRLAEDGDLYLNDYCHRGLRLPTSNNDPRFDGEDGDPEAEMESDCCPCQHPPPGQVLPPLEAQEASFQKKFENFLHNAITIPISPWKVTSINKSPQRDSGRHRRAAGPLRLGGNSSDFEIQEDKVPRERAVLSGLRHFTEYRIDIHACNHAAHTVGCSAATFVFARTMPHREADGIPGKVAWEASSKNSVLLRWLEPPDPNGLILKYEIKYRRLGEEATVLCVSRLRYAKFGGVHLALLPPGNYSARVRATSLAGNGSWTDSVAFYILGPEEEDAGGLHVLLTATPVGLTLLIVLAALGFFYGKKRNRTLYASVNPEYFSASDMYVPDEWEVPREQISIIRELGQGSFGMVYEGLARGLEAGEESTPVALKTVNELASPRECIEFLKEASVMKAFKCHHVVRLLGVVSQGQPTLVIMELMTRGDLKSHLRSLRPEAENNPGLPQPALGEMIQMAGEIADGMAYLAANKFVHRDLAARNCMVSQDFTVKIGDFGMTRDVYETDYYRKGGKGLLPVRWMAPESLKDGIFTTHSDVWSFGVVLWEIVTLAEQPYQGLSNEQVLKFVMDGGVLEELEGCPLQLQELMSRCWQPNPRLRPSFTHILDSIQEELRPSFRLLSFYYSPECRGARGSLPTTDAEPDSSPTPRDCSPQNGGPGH

[19] = biological target: Lck(h) activated (Homo sapiens (Human), UniProt P06239); assay: Kinase inhibition assay (KinaseProfiler, 33P-ATP); assay type: biochemical; conditions: read-out: The percentage of the remaining active protein
[20] = biological target: MELK(h) (Homo sapiens (Human), UniProt Q14680); assay: Kinase inhibition assay (KinaseProfiler, 33P-ATP); assay type: biochemical; conditions: read-out: The percentage of the remaining active protein
[21] = biological target: MKK6(h) (Homo sapiens (Human), UniProt P52564); assay: Kinase inhibition assay (KinaseProfiler, 33P-ATP); assay type: biochemical; conditions: read-out: The percentage of the remaining active protein
MKK6(h), sequence (P52564 whole entry): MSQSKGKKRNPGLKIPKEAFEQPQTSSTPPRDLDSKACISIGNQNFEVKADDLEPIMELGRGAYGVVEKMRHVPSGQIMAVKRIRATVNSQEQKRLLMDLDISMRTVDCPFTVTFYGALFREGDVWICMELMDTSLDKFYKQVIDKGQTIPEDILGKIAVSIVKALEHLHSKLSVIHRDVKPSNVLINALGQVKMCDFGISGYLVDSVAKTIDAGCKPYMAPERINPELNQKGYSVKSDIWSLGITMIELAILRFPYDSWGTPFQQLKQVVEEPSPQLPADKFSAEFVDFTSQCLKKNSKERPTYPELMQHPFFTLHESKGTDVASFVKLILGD

[22] = biological target: MRCKβ(h) (Homo sapiens (Human), UniProt Q9Y5S2); assay: Kinase inhibition assay (KinaseProfiler, 33P-ATP); assay type: biochemical; conditions: read-out: The percentage of the remaining active protein
[23] = biological target: MSK2(h) (Homo sapiens (Human), UniProt O75676); assay: Kinase inhibition assay (KinaseProfiler, 33P-ATP); assay type: biochemical; conditions: read-out: The percentage of the remaining active protein
[24] = biological target: PAR-1Bα(h) (Homo sapiens (Human), UniProt Q7KZI7); assay: Kinase inhibition assay (KinaseProfiler, 33P-ATP); assay type: biochemical; conditions: read-out: The percentage of the remaining active protein
[25] = biological target: ROCK-II(r) (Rattus norvegicus (Rat), UniProt Q62868); assay: Kinase inhibition assay (KinaseProfiler, 33P-ATP); assay type: biochemical; conditions: read-out: The percentage of the remaining active protein
[26] = biological target: Rsk2(h) (Homo sapiens (Human), UniProt P51812); assay: Kinase inhibition assay (KinaseProfiler, 33P-ATP); assay type: biochemical; conditions: read-out: The percentage of the remaining active protein
[27] = biological target: Rsk4(h) (Homo sapiens (Human), UniProt Q9UK32); assay: Kinase inhibition assay (KinaseProfiler, 33P-ATP); assay type: biochemical; conditions: read-out: The percentage of the remaining active protein
[28] = biological target: STK25(h) (Homo sapiens (Human), UniProt O00506); assay: Kinase inhibition assay (KinaseProfiler, 33P-ATP); assay type: biochemical; conditions: read-out: The percentage of the remaining active protein
STK25(h), sequence (O00506 whole entry): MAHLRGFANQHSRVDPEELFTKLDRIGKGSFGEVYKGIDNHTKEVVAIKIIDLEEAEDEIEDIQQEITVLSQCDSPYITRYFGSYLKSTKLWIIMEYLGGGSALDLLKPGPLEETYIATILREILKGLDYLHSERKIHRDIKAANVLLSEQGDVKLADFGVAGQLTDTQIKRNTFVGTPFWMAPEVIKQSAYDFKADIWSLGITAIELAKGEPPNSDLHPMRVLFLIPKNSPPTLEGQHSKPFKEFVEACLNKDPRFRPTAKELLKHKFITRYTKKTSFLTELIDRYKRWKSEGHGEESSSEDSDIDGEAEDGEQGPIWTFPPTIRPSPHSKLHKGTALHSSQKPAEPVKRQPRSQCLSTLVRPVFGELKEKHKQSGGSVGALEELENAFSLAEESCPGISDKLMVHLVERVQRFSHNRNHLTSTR

[29] = biological target: TrkC(h) (Homo sapiens (Human), UniProt Q16288); assay: Kinase inhibition assay (KinaseProfiler, 33P-ATP); assay type: biochemical; conditions: read-out: The percentage of the remaining active protein
TrkC(h), sequence (Q16288 32-839): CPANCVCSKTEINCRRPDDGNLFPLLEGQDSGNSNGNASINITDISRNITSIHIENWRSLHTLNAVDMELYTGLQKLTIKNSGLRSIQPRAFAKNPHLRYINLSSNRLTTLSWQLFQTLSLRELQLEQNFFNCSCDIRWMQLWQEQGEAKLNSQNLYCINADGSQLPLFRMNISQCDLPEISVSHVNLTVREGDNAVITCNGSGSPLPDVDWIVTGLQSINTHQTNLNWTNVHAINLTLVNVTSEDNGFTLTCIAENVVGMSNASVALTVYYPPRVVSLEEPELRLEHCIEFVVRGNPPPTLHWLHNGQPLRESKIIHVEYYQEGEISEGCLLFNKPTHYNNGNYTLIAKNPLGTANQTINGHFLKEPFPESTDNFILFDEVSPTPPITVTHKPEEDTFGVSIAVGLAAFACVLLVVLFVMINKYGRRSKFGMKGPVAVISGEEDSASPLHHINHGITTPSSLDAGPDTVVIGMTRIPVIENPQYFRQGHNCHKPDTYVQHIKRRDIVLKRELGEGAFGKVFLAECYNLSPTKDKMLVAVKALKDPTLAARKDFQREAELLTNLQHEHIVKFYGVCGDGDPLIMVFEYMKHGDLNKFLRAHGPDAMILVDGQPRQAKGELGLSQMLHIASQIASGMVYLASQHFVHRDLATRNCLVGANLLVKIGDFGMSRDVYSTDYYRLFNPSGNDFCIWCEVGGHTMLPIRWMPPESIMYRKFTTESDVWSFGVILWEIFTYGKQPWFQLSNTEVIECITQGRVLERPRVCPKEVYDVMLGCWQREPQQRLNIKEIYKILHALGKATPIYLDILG

[30] = biological target: TYK2(h) (Homo sapiens (Human), UniProt P29597); assay: Kinase inhibition assay (KinaseProfiler, 33P-ATP); assay type: biochemical; conditions: read-out: The percentage of the remaining active protein
[31] = biological target: ULK2(h) (Homo sapiens (Human), UniProt Q8IYT8); assay: Kinase inhibition assay (KinaseProfiler, 33P-ATP); assay type: biochemical; conditions: read-out: The percentage of the remaining active protein
[32] = biological target: PI3 Kinase (p110a(H1047R)/p85a)(m) (Mus musculus (Mouse), UniProt P42337, H1047R); assay: Kinase inhibition assay (KinaseProfiler, 33P-ATP); assay type: biochemical; conditions: read-out: The percentage of the remaining active protein
[33] = biological target: PI3 Kinase (p110a(E545K)/p85a)(h) (Homo sapiens (Human), UniProt P42336, E545K); assay: Kinase inhibition assay (KinaseProfiler, 33P-ATP); assay type: biochemical; conditions: read-out: The percentage of the remaining active protein
[34] = biological target: PIP5K1g(h) (Homo sapiens (Human), UniProt O60331); assay: Kinase inhibition assay (KinaseProfiler, 33P-ATP); assay type: biochemical; conditions: read-out: The percentage of the remaining active protein
PIP5K1g(h), sequence (O60331 whole entry): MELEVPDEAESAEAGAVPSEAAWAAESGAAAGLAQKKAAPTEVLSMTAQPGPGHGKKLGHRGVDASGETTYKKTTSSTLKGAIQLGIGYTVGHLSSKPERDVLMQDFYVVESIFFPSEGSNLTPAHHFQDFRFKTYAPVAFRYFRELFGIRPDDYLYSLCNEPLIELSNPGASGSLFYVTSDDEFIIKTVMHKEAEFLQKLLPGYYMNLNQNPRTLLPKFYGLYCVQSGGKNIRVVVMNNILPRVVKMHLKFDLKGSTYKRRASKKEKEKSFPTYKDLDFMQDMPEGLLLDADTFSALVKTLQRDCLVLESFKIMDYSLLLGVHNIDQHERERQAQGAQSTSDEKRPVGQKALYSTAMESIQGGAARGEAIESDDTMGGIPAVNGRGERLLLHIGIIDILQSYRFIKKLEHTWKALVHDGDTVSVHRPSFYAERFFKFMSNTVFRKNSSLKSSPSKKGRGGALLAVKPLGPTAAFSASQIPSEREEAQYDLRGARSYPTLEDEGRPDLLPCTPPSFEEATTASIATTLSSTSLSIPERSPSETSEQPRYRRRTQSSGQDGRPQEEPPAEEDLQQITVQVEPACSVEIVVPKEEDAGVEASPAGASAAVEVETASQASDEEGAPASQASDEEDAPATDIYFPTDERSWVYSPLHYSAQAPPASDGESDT

[35] = biological target: LIMK1 (Homo sapiens (Human), UniProt P53667); assay: biochemical; conditions: read-out: The percentage of the remaining active protein
[36] = biological target: PTK5 (Homo sapiens (Human), UniProt P42685); assay: Kinase inhibition assay (KinaseProfiler, 33P-ATP); conditions: read-out: The percentage of the remaining active protein

SMILES: CCn1nc(C#Cc2cc(C(=O)Nc3ccc(CN4CCN(C)CC4)c(C(F)(F)F)c3)ccc2C)c2c(N)ncnc21 [Compound 3]
IC50 [1]: 3.37 µM

IC50 [3]: 5.42 µM
SMILES: Cc1ccc(NC(=O)c2cccc(C(F)(F)F)c2)cc1C#Cc1nn(C2CCN(C)CC2)c2ncnc(N)c12 [Compound 31]
IC50 [2]: 1810 nM

remaining activity at 10 µM ([4]; CSK(h), 10 μM, read-out: The percentage of the remaining active protein): -1% | IC50 ([4]; CSK, ATP at Km): 9 nM | remaining activity at 10 µM [5]: -3% | remaining activity at 10 µM [6]: 2% | IC50 [7]: ~10 µM | remaining activity at 10 µM [8]: 1% | remaining activity at 10 µM [9]: 7% | remaining activity at 10 µM [10]: 71% | remaining activity at 10 µM [11]: 92% | remaining activity at 10 µM [12]: 103% | The percentage of the remaining active protein [13]: 86% | remaining activity at 10 µM [14]: 9% | remaining activity at 10 µM [15]: 99% | remaining activity at 10 µM [16]: -1% | remaining activity at 10 µM [17]: 97% | remaining activity at 10 µM [18]: 107% | remaining activity at 10 µM [19]: 0% | remaining activity at 10 µM [20]: 23% | remaining activity at 10 µM [21]: 43% | remaining activity at 10 µM [22]: 87% | remaining activity at 10 µM [23]: 70% | remaining activity at 10 µM [24]: 98% | remaining activity at 10 µM [25]: 85% | remaining activity at 10 µM [26]: 44% | remaining activity at 10 µM [27]: 44% | remaining activity at 10 µM [28]: 66% | remaining activity at 10 µM [29]: 17% | remaining activity at 10 µM [30]: 36% | remaining activity at 10 µM [31]: 100% | remaining activity at 10 µM [32]: 94% | remaining activity at 10 µM [33]: 92% | remaining activity at 10 µM [34]: 98% | remaining activity at 10 µM [35]: 5% | remaining activity at 10 µM [36]: 1%
SMILES: Cc1ccc(NC(=O)c2ccc(C)c(C(F)(F)F)c2)cc1C#Cc1nn([C@H]2CC[C@H](O)CC2)c2ncnc(N)c12 [Compound 93]
